Measurements published in patent publication US8192962B2, “Processes for detecting toxic substances” (Daikin Industries, Ltd., priority 2001, dated 2012).

Tested on: Genes belonging to other category
Assay: DNA chip mRNA expression in yeast, genes belonging to other category (Table 9)
Type: cell-based, Saccharomyces cerevisiae S288C
Procedure: Yeast (Saccharomyces cerevisiae S288C (α SUC2mal mel gap2 CUP1)) were incubated at 25° C. on YPD medium (yeast extract 1%, polypepton 2%, glucose 2%). One of toxic chemical substances was added to the cells at logarithmic growth phase, and the cells were further incubated for two hours. Cells were cultured without any chemical substance in the same condition, and were used as control. Concentrations of the chemical substances were defined to inhibit the growth of the yeast but not lead to death.
After completion of the incubation, the culture was centrifuged to collect the cells. To the cells, sodium acetate buffer (50 mM sodium acetate, 10 mM EDTA, 1% SDS) was added, and the mixture was shaken at 65° C. for five minutes, followed by returning to room temperature, and obtaining the supernatant, of which the procedures were repeated two times. To the supernatant, ½ amount of a solution of phenol/chloroform was added, and the mixture was centrifuged to give a supernatant, which was added with an equal amount of chloroform, and the mixture was centrifuged to give a supernatant. To the supernatant, an equal amount of isopropanol containing 0.3 M sodium acetate was added, and the mixture was allowed to stand at room temperature for 30 minutes, after which the mixture was centrifuged to give a sediment of the whole RNAs. Seventy % ethanol was added to the sediment, and the mixture was again centrifuged to give a sediment, which was then dried and dissolved in water. mRNA was isolated from the whole RNAs as followings. In view of the fact that a poly A chain is attached to the 3′ terminus of mRNA, a polynucleotide having a poly T structure which was immobilized on the surface of latex beads was used to trap the mRNA, and then the mRNA was washed and eluted with spine column (Oligotex-dT30<Super>mRNA Purification Kit, Takara). Reverse transcription of the mRNA was conducted with a reverse transcriptase (Super Script II Reverse Transcriptase; catalogue No. 18064-014, GibcoBRL) using fluorescence-labeled nucleotides to give cDNAs that were introduced with Cy3-dUTP or Cy5-dUTP during the reverse transcription.
The labeled cDNAs were dissolved in TE buffer (10mM Tris-HCl/1 mM EDTA, pH8.0), and the solution was dropped on the DNA chip containing the whole genes of yeast (DNA Chip Research Inc. Japan) so that the cDNAs were hybridized on the DNA chip at 65° C. for over 12 hours. The fluoresces intensity of the DNA chip was read with a scanner, and the ratio relative to the fluorescence intensity resulting from the absence of chemical substance was estimated as the following, which is shown in Tables 1 to 9: […]

COc1cc(CNC(=O)CCCCC=CC(C)C)ccc1O [(12), 8-methyl-N-vanillyl-6-nonenamide]
The level of expressed mRNA in the presence of chemical substance/The level of expressed mRNA in the absence of chemical substance (yeast gene YMR226C): 1.1 | The level of expressed mRNA in the presence of chemical substance/The level of expressed mRNA in the absence of chemical substance (yeast gene YMR238W): 1.0 | The level of expressed mRNA in the presence of chemical substance/The level of expressed mRNA in the absence of chemical substance (yeast gene YMR275C): 0.7 | The level of expressed mRNA in the presence of chemical substance/The level of expressed mRNA in the absence of chemical substance (yeast gene YMR276W): 1.2 | The level of expressed mRNA in the presence of chemical substance/The level of expressed mRNA in the absence of chemical substance (yeast gene YMR314W): 1.0 | The level of expressed mRNA in the presence of chemical substance/The level of expressed mRNA in the absence of chemical substance (yeast gene YNL006W): 0.7 | The level of expressed mRNA in the presence of chemical substance/The level of expressed mRNA in the absence of chemical substance (yeast gene YNL007C): 0.7 | The level of expressed mRNA in the presence of chemical substance/The level of expressed mRNA in the absence of chemical substance (yeast gene YNL015W): 2.8 | The level of expressed mRNA in the presence of chemical substance/The level of expressed mRNA in the absence of chemical substance (yeast gene YNL093W): 1.1 | The level of expressed mRNA in the presence of chemical substance/The level of expressed mRNA in the absence of chemical substance (yeast gene YNL147W): 0.8 | The level of expressed mRNA in the presence of chemical substance/The level of expressed mRNA in the absence of chemical substance (yeast gene YNL333W): 1.0 | The level of expressed mRNA in the presence of chemical substance/The level of expressed mRNA in the absence of chemical substance (yeast gene YNL335W): 0.8 | The level of expressed mRNA in the presence of chemical substance/The level of expressed mRNA in the absence of chemical substance (yeast gene YNR010W): 0.8 | The level of expressed mRNA in the presence of chemical substance/The level of expressed mRNA in the absence of chemical substance (yeast gene YNR037C): 0.7 | The level of expressed mRNA in the presence of chemical substance/The level of expressed mRNA in the absence of chemical substance (yeast gene YNR069C): 1.2 | The level of expressed mRNA in the presence of chemical substance/The level of expressed mRNA in the absence of chemical substance (yeast gene YOL013C): 1.1 | The level of expressed mRNA in the presence of chemical substance/The level of expressed mRNA in the absence of chemical substance (yeast gene YOL164W): 1.1 | The level of expressed mRNA in the presence of chemical substance/The level of expressed mRNA in the absence of chemical substance (yeast gene YOR036W): 1.2 | The level of expressed mRNA in the presence of chemical substance/The level of expressed mRNA in the absence of chemical substance (yeast gene YOR117W): 2.5 | The level of expressed mRNA in the presence of chemical substance/The level of expressed mRNA in the absence of chemical substance (yeast gene YOR124C): 0.9 | The level of expressed mRNA in the presence of chemical substance/The level of expressed mRNA in the absence of chemical substance (yeast gene YOR132W): 0.7 | The level of expressed mRNA in the presence of chemical substance/The level of expressed mRNA in the absence of chemical substance (yeast gene YOR157C): 1.3 | The level of expressed mRNA in the presence of chemical substance/The level of expressed mRNA in the absence of chemical substance (yeast gene YOR181W): 0.8 | The level of expressed mRNA in the presence of chemical substance/The level of expressed mRNA in the absence of chemical substance (yeast gene YOR185C): 1.5 | The level of expressed mRNA in the presence of chemical substance/The level of expressed mRNA in the absence of chemical substance (yeast gene YOR198C): 1.5 | The level of expressed mRNA in the presence of chemical substance/The level of expressed mRNA in the absence of chemical substance (yeast gene YOR229W): 0.8 | The level of expressed mRNA in the presence of chemical substance/The level of expressed mRNA in the absence of chemical substance (yeast gene YOR259C): 0.8 | The level of expressed mRNA in the presence of chemical substance/The level of expressed mRNA in the absence of chemical substance (yeast gene YOR261C): 0.9 | The level of expressed mRNA in the presence of chemical substance/The level of expressed mRNA in the absence of chemical substance (yeast gene YOR265W): 0.8 | The level of expressed mRNA in the presence of chemical substance/The level of expressed mRNA in the absence of chemical substance (yeast gene YOR288C): 1.4 | The level of expressed mRNA in the presence of chemical substance/The level of expressed mRNA in the absence of chemical substance (yeast gene YOR355W): 0.9 | The level of expressed mRNA in the presence of chemical substance/The level of expressed mRNA in the absence of chemical substance (yeast gene YOR383C): 1.1 | The level of expressed mRNA in the presence of chemical substance/The level of expressed mRNA in the absence of chemical substance (yeast gene YPL089C): 0.7 | The level of expressed mRNA in the presence of chemical substance/The level of expressed mRNA in the absence of chemical substance (yeast gene YPL109C): 0.9 | The level of expressed mRNA in the presence of chemical substance/The level of expressed mRNA in the absence of chemical substance (yeast gene YPL149W): 0.9 | The level of expressed mRNA in the presence of chemical substance/The level of expressed mRNA in the absence of chemical substance (yeast gene YPL154C): 1.5 | The level of expressed mRNA in the presence of chemical substance/The level of expressed mRNA in the absence of chemical substance (yeast gene YPL230W): 1.0 | The level of expressed mRNA in the presence of chemical substance/The level of expressed mRNA in the absence of chemical substance (yeast gene YPR066W): 0.8 | The level of expressed mRNA in the presence of chemical substance/The level of expressed mRNA in the absence of chemical substance (yeast gene YPR103W): 1.2 | The level of expressed mRNA in the presence of chemical substance/The level of expressed mRNA in the absence of chemical substance (yeast gene YPR108W): 1.0 | The level of expressed mRNA in the presence of chemical substance/The level of expressed mRNA in the absence of chemical substance (yeast gene YPR140W): 0.8 | The level of expressed mRNA in the presence of chemical substance/The level of expressed mRNA in the absence of chemical substance (yeast gene YPR185W): 0.8
